Results on four molecules are retold here after patent US20200138804A1, “METHODS FOR TREATING CANCER” (X4 Pharmaceuticals, Inc., priority 2017, published 2020).

For series [1], the system named is advanced clear-cell renal cell carcinoma. Conditions: nivolumab 3 mg/kg IV every two weeks or everolimus 10 mg orally daily; P<0.001; cited from earlier work.
Series [2] has as its system murine models of melanoma, renal cell carcinoma, and ovarian cancer. Conditions: including decreased metastasis and increased overall survival; cited from earlier work.
For series [3] the following is noted: subcutaneous injection; cited from earlier work.
For series [4] the following is noted: Phase 1 and 2a trials, oral; cited from earlier work.
Series [5] is described as follows: Solubility of X4P-001 as a function of pH. In kind it is physicochemical.
The nature of another series: in vivo. The procedure: In certain embodiments, the dosage composition may be provided twice a day in divided dosage, approximately 12 hours apart. In other embodiments, the dosage composition may be provided once daily. […] Dosage for oral administration may be from about 100 mg to about 1200 mg once or twice per day.
Series [6] concerns intra-tumoral CD8+ activated T-cells and FoxP3+ Tregs. The experiment in a line: Immunohistochemical analysis of intra-tumor T-cell infiltrates in a melanoma patient before and after X4P-001. In kind it is in vivo, human. The procedure:
Intra-tumoral tissue samples were obtained from a patient with melanoma prior to treatment (Day 1), and after three (3) weeks of treatment with CXCR4 inhibitor […]-001 (200 mg BID, oral) (Week 4). Samples were stained for CD8+, indicative of activated T-cells, and FoxP3+, indicative of immunosuppressive regulator T-cells (Tregs). The tables below indicate the total counts and density per square millimeter (mm^2) of CD8+ activated T-cells and FoxP3+ Tregs, as well as the ratio of CD8+ activated T-cells:FoxP3+ Tregs per mm^2 at day 1 and after 3 weeks of treatment.

Series [7] deals with tumor infiltrating lymphocytes and MDSC in MC38 tumors. Briefly: Flow cytometry of Day 8 tumor samples, MC38 model (Groups 5-8). In kind it is in vivo, mouse. From the text:
On Day 8, tumor samples from Groups 5-8 are obtained and divided into three parts. The first part is process to single cells by flow cytometry; second part is preserved by snap freeze; and the third part is preserved as formalin-fixed, paraffin-embedded (FFPE) blocks for IHC analysis of biomarkers.
Samples subjected to flow cytometry are sorted into the following cell types:

“Also recorded” adds a separate entry of the source. Where two headings read alike, the source gives them in different places.

Consider “nivolumab: fully human IgG4 monoclonal antibody binding the PD-1 receptor”, for which, in series [1], the objective response rate is 25%.

As a reminder, the half-life is the time in which the quantity being followed falls by half. With `c1cc(CN2CCCNCCNCCCNCC2)ccc1CN1CCCNCCNCCCNCC1` [Plerixafor, reference compound], the anti-tumor activity result in series [2] is reported as “significant anti-tumor activity”. Besides, the half-life result in series [3] is reported as “very short half-life”.

Consider `CO[C@H]1C[C@@H]2CC[C@@H](C)[C@@](O)(O2)C(=O)C(=O)N2CCCC[C@H]2C(=O)O[C@H]([C@H](C)C[C@@H]2CC[C@@H](OCCO)[C@H](OC)C2)CC(=O)[C@H](C)/C=C(\C)[C@@H](O)[C@@H](OC)C(=O)[C@H](C)C[C@H](C)/C=C/C=C/C=C/1C` [everolimus], for which the objective response rate in series [1] was 5%.

As a reminder, the solubility is the dissolved amount per volume that the medium holds. A high value points to a readily soluble substance. Turning to `NCCCCN(Cc1nc2ccccc2[nH]1)[C@H]1CCCc2cccnc21` [X4P-001], in series [4], the “pharmacodynamic activity: changes in circulating white blood cells (WBCs)” value was “dose- and concentration-related changes in circulating white blood cells”; the “volume of distribution (VL)” value is listed as “high volume of distribution”. In series [5] (aqueous buffer, pH range 3.0 to 8.0 (freely soluble)), this molecule gave a solubility above 100 mg/mL. In addition, the Solubility in water entry in series [5] (water) is given as “only slightly soluble”. For the same molecule, the anti-tumor activity entry in series [2] was “significant anti-tumor activity”. For the same molecule, the terminal half-life entry in the series “in vivo” was “approximately 14.5 hrs”. In addition, the half-life in the series “in vivo” (terminal half-life) fell in the range of 720 to 1440 min. The “Total FoxP3+/mm^2” value in series [6] (Week 4, after 3 weeks of 200 mg BID oral, Day 1 before treatment 24.5868158) is recorded as 25.2 /mm^2. Further, in series [6] (Week 4, after 3 weeks of 200 mg BID oral, Day 1 before treatment 56.87565442), the “Total CD8+/mm^2” value was 121.4 /mm^2. The “Total FoxP3+” value in series [6] (Week 4, after 3 weeks of 200 mg BID oral, Day 1 before treatment 313) is given as 337. In addition, in series [6] (Week 4, after 3 weeks of 200 mg BID oral, Day 1 before treatment 720), the “Total CD8+” value came out at 1685. For the same molecule, the “intra-tumoral CD8+ T-cell counts” value in series [6] (Week 4 versus Day 1, 200 mg BID oral, FIG. 3) was “marked increases in CD8+ T-cells; also recorded: marked increase”. The “Treg, Percent of CD45^+ Population (Mean ± SEM)” value in series [7] (control 0.5 ± 0.08) is 0.49 ± 0.14%. Also, in series [7] (control 1.21 ± 0.29), the “CD4^+, Percent of CD45^+ Population (Mean ± SEM)” value was 1.3 ± 0.51%. Besides, the “CD8^+, Percent of CD45^+ Population (Mean ± SEM)” value in series [7] (control 3.91 ± 0.69) was 6.11 ± 0.66%. The “CD8^+/Treg” value in series [7] (control 7.82) worked out at 12.47. The “MDSC, Percent of CD45^+ Population (Mean ± SEM)” value in series [7] (control 28.97 ± 3.6) was determined as 16.2 ± 0.67%. In series [7] (versus control), the “effect on CD8^+ T cells” value is “increasing CD8^+ T cells” and the “effect on MDSCs” value is “significant effect on reducing MDSCs”.
